Measurements published in patent publication US20260224588A1, “BENZODIAZEPINONE-DERIVED INHIBITORS OF EGFR AND HER2” (The Research Foundation for the State University of New York, priority 2023, published 2026).

Columns and labels:
[1] = biological target: T1, ERK4 (Homo sapiens, UniProt P31152); assay: KINOMEscan; format: binding; settings: 1 μM of compound 4; read-out: POC
T1 construct: purchased Eurofins DiscoverX Corporation

[2] = biological target: T2, EGFR L858R/T790M/C797S kinase domain (Homo sapiens, UniProt P00533, C797S/L858R/T790M); assay: HTRF-based activity assay; format: biochemical; settings: 100 μM ATP, enzyme 0.02 nM, read-out: Biochemical EGFR IC50, LRTMCS
T2 construct: The EGFR kinase domain (residues 696-1022) was cloned into pTriEx; 6xHis (N, cleaved yes); GST (N, cleaved yes); made in house; host or cells: SF9 insect cells (baculovirus)
Procedure: Protein expression and purification. The EGFR kinase domain (residues 696-1022) was cloned into pTriEx with an N-terminal 6×His-glutathione S-transferase (GST) fusion tag followed by a TEV protease cleavage site. EGFR WT, L858R, L858R/T790M, L858R/T790M/C797S was expressed after baculoviral infection in SF9 cells and EGFR(T790M/V948R) was expressed in SF21 cells. Briefly, cells were pelleted and resuspended in lysis buffer composed of 50 mM Tris pH 8.0, 500 mM NaCl, 1 mM tris(2-carboxyethyl)phosphine (TCEP), and 5% glycerol. Cells were lysed via sonication prior to ultracentrifugation at >200,000 g for 1 h. Imidazole pH 8.0 was added to the supernatant for a final concentration of 40 mM and flowed through a column containing Ni-NTA agarose beads. The resin was washed with lysis buffer supplemented with 40 mM imidazole and eluted with lysis buffer containing 200 mM imidazole. Eluted EGFR kinase domain was dialyzed overnight in the presence of 5% (w/w) TEV protease against dialysis buffer containing 50 mM Tris pH 8.0, 500 mM NaCl, 1 mM TCEP, and 5% glycerol. The cleaved protein was passed through Ni-NTA resin to remove the 6×His-GST fusion protein and TEV prior to size exclusion chromatography on a prep-grade Superdex S200 column in 50 mM Tris pH 8.0, 500 mM NaCl, 1 mM TCEP, and 5% glycerol.
HTRF Assays. Biochemical assays for EGFR domains were carried out using a homogeneous time-resolved fluorescence (HTRF) KinEASE-TK (Cisbio) assay, as described previously. Assays were optimized for ATP concentration of 100 μM with enzyme concentrations WT EGFR 10 nM, L858R 0.1 nM, L858R/T790M at 0.02 nM and L858R/T790M/C797S at 0.02 nM. Inhibitor compounds in DMSO were dispensed directly in 384-well plates with the D300 digital dispenser (Hewlett Packard) followed immediately by the addition of aqueous buffered solutions using the Multidrop Combi Reagent Dispenser (Thermo Fischer). […] The curves were fitted using a non-linear regression model with a sigmoidal dose response.

[3] = biological target: CSK (Homo sapiens, UniProt P41240); assay: KINOMEscan; format: binding; settings: 1 μM of compound 4; read-out: POC
[4] = biological target: IKK-epsilon (Homo sapiens, UniProt Q14164); assay: KINOMEscan; format: binding; settings: 1 μM of compound 4; read-out: POC
[5] = biological target: T3, TLK1 (Homo sapiens, UniProt Q9UKI8); assay: KINOMEscan; format: binding; settings: 1 μM of compound 4; read-out: POC
T3 construct: purchased Eurofins DiscoverX Corporation

[6] = biological target: JAK2(JH1domain-catalytic) (Homo sapiens, UniProt O60674); assay: KINOMEscan; format: binding; settings: 1 μM of compound 4; read-out: POC
[7] = biological target: T4, STK33 (Homo sapiens, UniProt Q9BYT3); assay: KINOMEscan; format: binding; settings: 1 μM of compound 4; read-out: POC
T4 construct: purchased Eurofins DiscoverX (KINOMEscan service)

[8] = biological target: T5, PAK4 (Homo sapiens, UniProt O96013); assay: KINOMEscan; format: binding; settings: 1 μM of compound 4; read-out: POC
T5 construct: purchased Eurofins DiscoverX Corporation (KINOMEscan)

[9] = biological target: IRAK4 (Homo sapiens, UniProt Q9NWZ3); assay: KINOMEscan; format: binding; settings: 1 μM of compound 4; read-out: POC
[10] = biological target: DCAMKL3 (Homo sapiens, UniProt Q9C098); assay: KINOMEscan; format: binding; settings: 1 μM of compound 4; read-out: POC
[11] = biological target: T6, ACVR1B (Homo sapiens, UniProt P36896); assay: KINOMEscan; format: binding; settings: 1 μM of compound 4; read-out: POC
T6 construct: purchased Eurofins DiscoverX Corporation

[12] = biological target: DMPK (Homo sapiens, UniProt Q09013); assay: KINOMEscan; format: binding; settings: 1 μM of compound 4; read-out: POC
[13] = biological target: CAMK1G (Homo sapiens, UniProt Q96NX5); assay: KINOMEscan; format: binding; settings: 1 μM of compound 4; read-out: POC
[14] = biological target: PRKCE (Homo sapiens, UniProt Q02156); assay: KINOMEscan; format: binding; settings: 1 μM of compound 4; read-out: POC
[15] = biological target: MLK3 (Homo sapiens, UniProt Q16584); assay: KINOMEscan; format: binding; settings: 1 μM of compound 4; read-out: POC
[16] = biological target: LYN (Homo sapiens, UniProt P07948); assay: KINOMEscan; format: binding; settings: 1 μM of compound 4; read-out: POC
[17] = biological target: T7, ERBB4 (Homo sapiens, UniProt Q15303); assay: KINOMEscan; format: binding; settings: 1 μM of compound 4; read-out: POC
T7 construct: purchased Eurofins DiscoverX Corporation

[18] = biological target: DDR2 (Homo sapiens, UniProt Q16832); assay: KINOMEscan; format: binding; settings: 1 μM of compound 4; read-out: POC
[19] = biological target: DCAMKL2 (Homo sapiens, UniProt Q8N568); assay: KINOMEscan; format: binding; settings: 1 μM of compound 4; read-out: POC
[20] = biological target: T8, FLT3(D835V) (Homo sapiens, UniProt P36888, D835V); assay: KINOMEscan; format: binding; settings: 1 μM of compound 4; read-out: POC
T8 construct: purchased Eurofins DiscoverX Corporation

[21] = biological target: T9, GRK4 (Homo sapiens, UniProt P32298); assay: KINOMEscan; format: binding; settings: 1 μM of compound 4; read-out: POC
T9 construct: purchased Eurofins DiscoverX Corporation

[22] = biological target: T10, RPS6KA4(Kin.Dom.2-C-terminal) (Homo sapiens, UniProt O75676); assay: KINOMEscan; format: binding; settings: 1 μM of compound 4; read-out: POC
T10 construct: RPS6KA4(Kin.Dom.2-C-terminal); purchased Eurofins DiscoverX Corporation (KINOMEscan screening service)

[23] = biological target: T11, VPS34 (Homo sapiens, UniProt Q8NEB9); assay: KINOMEscan; format: binding; settings: 1 μM of compound 4; read-out: POC
T11 construct: purchased Eurofins DiscoverX

[24] = biological target: T12, p38-delta (Homo sapiens, UniProt O15264); assay: KINOMEscan; format: binding; settings: 1 μM of compound 4; read-out: POC
T12 construct: purchased Eurofins DiscoverX Corporation (KINOMEscan)

[25] = biological target: T13, FLT3(K663Q) (Homo sapiens, UniProt P36888, K663Q); assay: KINOMEscan; format: binding; settings: 1 μM of compound 4; read-out: POC
T13 construct: purchased Eurofins DiscoverX Corporation

T12 sequence (O15264 whole entry): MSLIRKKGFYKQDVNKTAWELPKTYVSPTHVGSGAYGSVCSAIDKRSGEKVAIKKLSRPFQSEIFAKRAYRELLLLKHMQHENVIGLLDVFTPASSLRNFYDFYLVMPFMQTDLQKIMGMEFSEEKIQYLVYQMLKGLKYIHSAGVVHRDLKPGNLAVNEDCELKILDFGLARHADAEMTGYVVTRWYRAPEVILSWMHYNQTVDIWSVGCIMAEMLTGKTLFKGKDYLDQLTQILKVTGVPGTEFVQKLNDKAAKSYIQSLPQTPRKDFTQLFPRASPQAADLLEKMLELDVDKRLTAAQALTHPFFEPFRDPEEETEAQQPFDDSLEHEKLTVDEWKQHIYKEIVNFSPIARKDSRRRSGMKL
T1 sequence (P31152 whole entry): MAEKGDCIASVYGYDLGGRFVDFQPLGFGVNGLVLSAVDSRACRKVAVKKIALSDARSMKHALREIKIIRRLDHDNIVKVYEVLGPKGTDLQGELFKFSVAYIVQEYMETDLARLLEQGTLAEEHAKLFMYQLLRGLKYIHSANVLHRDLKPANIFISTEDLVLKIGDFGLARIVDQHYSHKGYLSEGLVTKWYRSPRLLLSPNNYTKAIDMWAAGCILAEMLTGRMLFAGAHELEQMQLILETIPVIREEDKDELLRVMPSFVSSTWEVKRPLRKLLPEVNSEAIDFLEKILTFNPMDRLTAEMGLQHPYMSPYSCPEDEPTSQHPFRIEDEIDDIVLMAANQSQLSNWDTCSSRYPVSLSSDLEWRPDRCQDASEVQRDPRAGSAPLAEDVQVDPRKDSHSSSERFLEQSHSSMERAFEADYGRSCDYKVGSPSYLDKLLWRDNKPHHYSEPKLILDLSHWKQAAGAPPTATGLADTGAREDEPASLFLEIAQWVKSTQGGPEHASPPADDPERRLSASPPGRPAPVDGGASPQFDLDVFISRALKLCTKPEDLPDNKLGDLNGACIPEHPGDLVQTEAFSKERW
CSK, sequence (P41240 whole entry): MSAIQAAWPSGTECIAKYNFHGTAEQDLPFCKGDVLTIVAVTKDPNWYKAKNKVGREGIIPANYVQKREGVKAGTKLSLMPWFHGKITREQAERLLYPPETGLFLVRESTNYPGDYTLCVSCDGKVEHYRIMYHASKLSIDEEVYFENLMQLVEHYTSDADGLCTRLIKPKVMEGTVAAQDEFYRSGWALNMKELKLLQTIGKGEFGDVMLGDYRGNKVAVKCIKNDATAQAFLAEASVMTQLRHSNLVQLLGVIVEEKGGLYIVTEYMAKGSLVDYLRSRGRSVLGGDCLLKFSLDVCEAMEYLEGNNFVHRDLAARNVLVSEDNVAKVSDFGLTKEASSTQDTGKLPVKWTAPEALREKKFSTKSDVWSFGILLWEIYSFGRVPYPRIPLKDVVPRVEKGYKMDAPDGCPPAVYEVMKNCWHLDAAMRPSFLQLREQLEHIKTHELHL
T3 sequence (Q9UKI8 whole entry): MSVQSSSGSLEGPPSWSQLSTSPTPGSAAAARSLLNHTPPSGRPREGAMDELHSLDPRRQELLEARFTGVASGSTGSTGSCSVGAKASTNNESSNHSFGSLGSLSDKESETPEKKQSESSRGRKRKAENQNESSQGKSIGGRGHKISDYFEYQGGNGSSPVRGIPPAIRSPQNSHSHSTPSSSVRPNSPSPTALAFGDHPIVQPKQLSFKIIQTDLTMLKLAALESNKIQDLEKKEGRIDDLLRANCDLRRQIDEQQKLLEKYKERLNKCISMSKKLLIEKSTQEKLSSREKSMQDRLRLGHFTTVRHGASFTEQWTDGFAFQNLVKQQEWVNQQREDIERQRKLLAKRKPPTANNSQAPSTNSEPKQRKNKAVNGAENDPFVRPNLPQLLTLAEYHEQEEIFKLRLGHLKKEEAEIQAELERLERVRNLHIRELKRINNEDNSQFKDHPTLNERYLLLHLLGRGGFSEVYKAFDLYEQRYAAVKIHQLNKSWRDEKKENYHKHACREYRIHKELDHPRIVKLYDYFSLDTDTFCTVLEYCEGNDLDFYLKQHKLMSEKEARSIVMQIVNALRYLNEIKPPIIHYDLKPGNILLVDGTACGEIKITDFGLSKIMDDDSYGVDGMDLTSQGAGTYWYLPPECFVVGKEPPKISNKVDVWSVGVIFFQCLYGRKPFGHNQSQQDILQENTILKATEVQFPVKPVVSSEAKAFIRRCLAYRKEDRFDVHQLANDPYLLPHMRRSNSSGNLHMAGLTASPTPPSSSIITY
LYN, sequence (P07948 whole entry): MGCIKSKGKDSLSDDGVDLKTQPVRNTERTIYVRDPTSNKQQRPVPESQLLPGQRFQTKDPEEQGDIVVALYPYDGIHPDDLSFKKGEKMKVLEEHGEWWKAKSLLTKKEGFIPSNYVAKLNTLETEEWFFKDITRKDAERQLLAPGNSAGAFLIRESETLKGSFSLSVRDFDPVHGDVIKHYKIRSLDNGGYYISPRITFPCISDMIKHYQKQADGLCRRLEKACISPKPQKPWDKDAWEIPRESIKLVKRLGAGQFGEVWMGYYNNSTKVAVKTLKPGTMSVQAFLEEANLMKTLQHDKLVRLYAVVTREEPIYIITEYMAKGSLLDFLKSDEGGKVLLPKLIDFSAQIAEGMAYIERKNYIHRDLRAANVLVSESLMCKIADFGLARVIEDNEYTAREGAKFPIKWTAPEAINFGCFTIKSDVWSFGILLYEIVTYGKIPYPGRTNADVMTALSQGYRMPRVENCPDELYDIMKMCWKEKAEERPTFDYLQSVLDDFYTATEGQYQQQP
T5 sequence (O96013 whole entry): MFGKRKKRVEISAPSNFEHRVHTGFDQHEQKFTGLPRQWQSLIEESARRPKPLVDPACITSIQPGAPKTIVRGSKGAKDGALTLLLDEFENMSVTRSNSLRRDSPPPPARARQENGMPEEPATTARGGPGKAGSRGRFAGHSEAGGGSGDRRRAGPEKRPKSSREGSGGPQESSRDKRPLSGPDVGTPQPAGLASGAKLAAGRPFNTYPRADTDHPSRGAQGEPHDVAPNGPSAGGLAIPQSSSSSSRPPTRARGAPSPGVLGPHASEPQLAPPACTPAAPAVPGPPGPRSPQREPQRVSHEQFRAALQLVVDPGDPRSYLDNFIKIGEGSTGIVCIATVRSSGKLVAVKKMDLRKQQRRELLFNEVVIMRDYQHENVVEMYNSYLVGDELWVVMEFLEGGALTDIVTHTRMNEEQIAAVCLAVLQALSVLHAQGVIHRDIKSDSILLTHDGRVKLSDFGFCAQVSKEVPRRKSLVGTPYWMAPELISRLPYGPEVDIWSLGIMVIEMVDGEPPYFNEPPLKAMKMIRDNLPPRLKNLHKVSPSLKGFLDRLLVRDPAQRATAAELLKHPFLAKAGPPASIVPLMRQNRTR
JAK2(JH1domain-catalytic), sequence (O60674 849-1124 limits assumed): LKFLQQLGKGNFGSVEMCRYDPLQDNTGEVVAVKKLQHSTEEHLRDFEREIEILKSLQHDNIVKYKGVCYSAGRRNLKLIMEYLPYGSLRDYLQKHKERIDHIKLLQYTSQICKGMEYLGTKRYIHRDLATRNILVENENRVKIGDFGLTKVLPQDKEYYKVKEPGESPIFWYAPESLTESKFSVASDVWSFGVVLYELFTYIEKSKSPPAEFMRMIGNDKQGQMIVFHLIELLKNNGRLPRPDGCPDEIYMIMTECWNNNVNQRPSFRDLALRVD
CAMK1G, sequence (Q96NX5 whole entry): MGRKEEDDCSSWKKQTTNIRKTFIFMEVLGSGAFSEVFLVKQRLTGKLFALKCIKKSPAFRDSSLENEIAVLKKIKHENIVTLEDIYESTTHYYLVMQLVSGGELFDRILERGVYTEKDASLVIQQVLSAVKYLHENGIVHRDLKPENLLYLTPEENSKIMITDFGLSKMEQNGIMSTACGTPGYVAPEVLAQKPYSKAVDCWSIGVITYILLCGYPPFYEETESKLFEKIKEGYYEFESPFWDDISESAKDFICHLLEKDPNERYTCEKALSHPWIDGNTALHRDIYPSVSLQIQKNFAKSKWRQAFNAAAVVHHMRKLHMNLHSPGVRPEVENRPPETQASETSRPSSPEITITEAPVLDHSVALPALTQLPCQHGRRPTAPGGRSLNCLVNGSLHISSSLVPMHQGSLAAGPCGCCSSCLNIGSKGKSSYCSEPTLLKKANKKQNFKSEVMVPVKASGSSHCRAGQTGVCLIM
IRAK4, sequence (Q9NWZ3 whole entry): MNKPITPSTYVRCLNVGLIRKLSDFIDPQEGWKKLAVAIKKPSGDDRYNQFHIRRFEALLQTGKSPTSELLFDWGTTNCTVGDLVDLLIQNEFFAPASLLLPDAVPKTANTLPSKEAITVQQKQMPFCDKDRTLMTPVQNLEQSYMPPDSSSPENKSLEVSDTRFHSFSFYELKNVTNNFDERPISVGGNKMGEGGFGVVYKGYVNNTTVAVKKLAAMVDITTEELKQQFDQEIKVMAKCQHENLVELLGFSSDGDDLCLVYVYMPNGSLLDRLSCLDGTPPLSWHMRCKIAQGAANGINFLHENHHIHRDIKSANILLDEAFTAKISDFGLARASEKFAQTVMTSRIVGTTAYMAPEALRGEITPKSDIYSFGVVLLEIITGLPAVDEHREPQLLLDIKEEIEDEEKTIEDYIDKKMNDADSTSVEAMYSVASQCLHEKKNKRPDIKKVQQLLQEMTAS
T6 sequence (P36896 24-505): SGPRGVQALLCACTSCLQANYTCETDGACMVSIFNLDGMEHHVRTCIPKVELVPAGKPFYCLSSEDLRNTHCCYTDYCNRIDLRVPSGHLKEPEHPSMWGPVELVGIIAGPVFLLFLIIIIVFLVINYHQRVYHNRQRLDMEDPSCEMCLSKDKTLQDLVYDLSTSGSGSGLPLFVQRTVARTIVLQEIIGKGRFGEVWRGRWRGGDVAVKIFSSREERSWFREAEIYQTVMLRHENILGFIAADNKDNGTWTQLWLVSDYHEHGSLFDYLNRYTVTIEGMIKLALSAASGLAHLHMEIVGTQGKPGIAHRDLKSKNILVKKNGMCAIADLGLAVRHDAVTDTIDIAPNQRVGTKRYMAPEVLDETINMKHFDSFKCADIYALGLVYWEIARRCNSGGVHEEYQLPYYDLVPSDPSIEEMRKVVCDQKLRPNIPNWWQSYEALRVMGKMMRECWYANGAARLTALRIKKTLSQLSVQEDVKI

`C=CC(=O)Nc1ccc(OC)c(Nc2cc(-c3[nH]c(CC)nc3-c3cccc(NC(=O)c4cccc5c4NC(=O)c4ccccc4N5)c3)ccn2)c1` [Compound 4, N-(3-(5-(2-((5-Acrylamido-2-methoxyphenyl)amino)pyridin-4-yl)-2-ethyl-1H-imidazol-4-yl)phenyl)-11-oxo-10,11-dihydro-5H-dibenzo[b,e][1,4]diazepine-9-carboxamide] showed a remaining binding at 1 µM [1] of 100%, an IC50 [2] of 1.8 ± 0.3 nM and a remaining binding at 1 µM [3] of 14%. For the same compound, the remaining binding at 1 µM [4] was 100%, the remaining binding at 1 µM [5] was 87% and the remaining binding at 1 µM [6] was 86%. For the same compound, the remaining binding at 1 µM [7] was 100%, the remaining binding at 1 µM [8] was 89% and the remaining binding at 1 µM [9] was 43%. The remaining binding at 1 µM [10] was 86%, the remaining binding at 1 µM [11] was 85% and the remaining binding at 1 µM [12] was 45%. It also gave a remaining binding at 1 µM [13] of 100%, a remaining binding at 1 µM [14] of 100% and a remaining binding at 1 µM [15] of 97%. For the same compound, the remaining binding at 1 µM [16] was 22%, the remaining binding at 1 µM [17] was 4.9% and the remaining binding at 1 µM [18] was 100%. It also gave a remaining binding at 1 µM [19] of 100%, a remaining binding at 1 µM [20] of 100% and a remaining binding at 1 µM [21] of 100%. For the same compound, the remaining binding at 1 µM [22] was 75%, the remaining binding at 1 µM [23] was 84% and the remaining binding at 1 µM [24] was 100%. It also gave a remaining binding at 1 µM [25] of 87%.
